Consider one compound from patent US20160067232A1, “METHODS FOR TREATING A STROKE-RELATED SENSORIMOTOR IMPAIRMENT USING AMINOPYRIDINES” (Acorda Therapeutics, Inc., priority 2011, published 2016).

The test has as its system rats with middle cerebral artery occlusion (MCAO). The test is described as follows: Body swing test (% right swing), MCAO rats, double crossover study (Example 2). To be noted: for Body Swing Test (% right Swing), individual animals: one value per rat. Format: in vivo, Sprague Dawley rat. As for the experimental part: 4-AP was evaluated for its ability to promote functional sensorimotor improvement following ischemic stroke in rats with stable motor deficits at times remote from their ischemic events. The animal model mimics the conditions in human ischemic stroke and is produced by middle cerebral artery occlusion (MCAO), which results in extensive infarction in cerebral cortex and striatum, including the cortical spinal tract (white matter).
In particular, the MCAO model in Sprague Dawley rats that was utilized in the experiments presented below mimics the conditions in human ischemic stroke. In this model, focal cerebral infarcts were made by permanent occlusion of the proximal right middle cerebral artery (MCA) using a modification of the method of Tamura et al. (No To Shinkei 1986; 38:747-51). Briefly, the temporalis muscle was bisected and reflected through an incision made midway between the eye and the ear canal. The proximal MCA was exposed through a subtemporal craniectomy without removing the zygomatic arch and without transecting the facial nerve.
Dosing and Treatment: Rats were treated in accordance with the dosing schedule shown in Tables 2A, 2B, 3 and FIG. 2, with each Phase being a two week period of time. A solution of 4-AP was used in this experiment. Dosing was started at 4 weeks after ischemic event. 4-aminopyridine was dissolved in water for injection (WFI, Cellgro) and sterile filtered. Final concentrations of 0.315 mg/mL or 1.0 mg/mL of 4-aminopyridine were delivered at 2 mL/kg by gastric gavage, resulting in final doses of 0.63 mg/kg and 2 mg/kg respectively. Vehicle control treatment was WFI delivered at 2 mL/kg by gastric gavage. This study was divided into three treatment phases (1-3) with each randomized cohort of animals receiving a different dose level during each of the treatment phases. Starting on day 30 after MCAO (Day 30, start of phase 1), the animals received gavage dosing of solutions (2 mL/kg) approximately 12 hours apart, for a total of five doses. The same schedule was repeated with different treatment on Day 44 and Day 58 for phase 2 and 3 of the study, respectively. Animals were not treated during the 10 days between phases (washout period).
Treatment groups: Dosing was started 4 weeks after MCAO surgery. During these 4 weeks, weekly behavioral assessments, as defined below, were performed. Two dose levels of 4-AP plus vehicle control were assessed, with treatment starting at 4 weeks after ischemic event. All dosing was via gastric gavage, volume not to exceed 2 mL/kg. Animals were given the first dose and behavioral assessments were performed starting 60 minutes after dosing. Animals then received the second dose that day at the appropriate time and b.i.d (preferably every 12 hours) thereafter for 2 more days (3 total days of dosing, 5 total doses). One hour after the 5th dose, animals were subjected to behavioral assessments as defined below. Following the final behavioral assessment, drug was withdrawn for 10 or 11 days, behavior was re-assessed, and then animals were re-challenged with a cross-over treatment (Phase 2 of Table 2B) as described in Tables 2A, 2B and 3, followed by the same behavioral testing and dosing regimen. This cross-over was repeated one more time as well (Phase 3 of Table 2B) (see FIG. 2).
Behavioral test details: Behavioral evaluations were done by evaluators blinded to treatment assignment. Blinded assessments of sensorimotor function were performed just prior to MCAO surgery, 24 hours after MCAO surgery and weekly thereafter until the first phase of dosing using limb placing and body swing behavioral tests. As described above, behavioral assessments were timed exactly with dosing times. Animals were tested one hour after the 1st and 5th doses of each phase (i.e., Days 30 and 32 of the first phase, Days 44 and 46 of the second phase; and Days 58 and 60 of the third phase); animals were also tested during the washout periods on Days 42 and 56. […]

“And” between values parts separate entries of the source, which are not always exact repeats. Equal values may be shown once.

With `Nc1ccncc1` [4-aminopyridine], the “Body swing function, low dose compared to vehicle, second mixed model” value (0.63 mg/kg b.i.d. p.o., level 0.05) is listed as “didn't show the statistical significant improvement”. The “Body swing function, low dose compared to vehicle, first mixed model” value (0.63 mg/kg b.i.d. p.o., p=0.033) was “significantly improved the body swing function”. Further, the “Body swing function, high dose compared to vehicle” value (2 mg/kg b.i.d. p.o., first mixed model p=0.0131, second p<0.0001) is recorded as “significantly improved the body swing function”. Further, the “Body Swing Test (% right Swing), individual animals” value is 33.33% and 40.00% (2×) and 30.00% (Group 1 (sequence hlv), D30 after MCAO, phase 1, high dose); 50.00% (3×) and 40.00% (2×) and 30.00% (Group 1 (sequence hlv), D32 after MCAO, phase 1, high dose); 33.33% and 50.00% and 40.00% (2×) and 30.00% (2×) (Group 1 (sequence hlv), D44 after MCAO, phase 2, low dose); 33.33% and 30.00% and 20.00% (2×) and 40.00% (Group 1 (sequence hlv), D46 after MCAO, phase 2, low dose); 20.00% and 40.00% and 30.00% (2×) (Group 2 (sequence lvh), D30 after MCAO, phase 1, low dose); 40.00% and 30.00% (2×) (Group 2 (sequence lvh), D32 after MCAO, phase 1, low dose). For the same compound, the “Body Swing Test (% right Swing), individual animals” value runs as follows: (Group 2 (sequence lvh), D58 after MCAO, phase 3, high dose) 40.00% and 50.00% (2×); (Group 2 (sequence lvh), D60 after MCAO, phase 3, high dose) 40.00% (5×) and 50.00% (4×); (Group 3 (sequence vhl), D44 after MCAO, phase 2, high dose) 40.00% (3×) and 43.33% (2×) and 46.67% (2×) and 53.33% and 13.33% and 36.67% and 50.00% (2×) and 23.33% and 33.33%; (Group 3 (sequence vhl), D46 after MCAO, phase 2, high dose) 40.00% (3×) and 43.33% (4×) and 50.00% and 30.00% (2×) and 53.33% (3×) and 20.00% and 23.33%; (Group 3 (sequence vhl), D58 after MCAO, phase 3, low dose) 30.00% (3×) and 46.67% (3×) and 40.00% (2×) and 20.00% (3×) and 53.33% and 33.33%; (Group 3 (sequence vhl), D60 after MCAO, phase 3, low dose) 30.00% (2×) and 43.33% (2×) and 36.67% (4×) and 50.00% (2×) and 26.67% and 23.33%. For the same compound, where the note is “Group 3, third treatment phase, low dose 0.63 mg/kg”, the “Body swing scores, Day 56 vs. Day 60” value is listed as “unchanged”. Further, the “Effect on global body control, body swing test (FIG. 5)” value (low or high dose, reversible and dose-dependent) is recorded as “effective to improve global body control”.
